Data taken from patent US9487489B2, “Halogen-substituted pyrazole derivatives as pest-control agents” (BAYER CROPSCIENCE AKTIENGESELLSCHAFT, priority 2013, dated 2016).

Assays:
[1] = tested on: larvae of the mustard beetle (Phaedon cochleariae); test: Phaedon cochleariae spray test (PHAECO); format: in vivo; conditions: Chinese cabbage leaf discs, after 7 days
How it was run: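 Compound dissolved in acetone/dimethylformamide with alkylaryl polyglycol ether emulsifier, made up in water containing 1000 ppm emulsifier, then diluted to test concentrations and sprayed against mustard beetle larvae. Efficacy (% larvae killed) scored after 7 days.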

[2] = tested on: L1 larvae of the Australian sheep blowfly (Lucilia cuprina); test: Lucilia cuprina test (LUCICU); format: in vivo; conditions: application rate 100 ppm; after 2 days
How it was run: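 About 20 L1 larvae placed in a vessel with minced horsemeat plus compound (DMSO concentrate diluted with water to the desired concentration). Kill in % scored after 2 days, 100% meaning all larvae dead.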

[3] = tested on: adult houseflies (Musca domestica); test: Musca domestica test (MUSCDO); format: in vivo; conditions: application rate 100 ppm; after 2 days
Procedure: F. Musca domestica Test (MUSCDO)
Solvent: dimethyl sulphoxide
To produce a suitable preparation of active compound, 10 mg of active compound are mixed with 0.5 ml of dimethyl sulphoxide, and the concentrate is diluted with water to the desired concentration.
Vessels containing a sponge treated with sugar solution and the active compound preparation of the desired concentration are populated with 10 adult houseflies (Musca domestica).
After 2 days, the kill in % is determined. 100% means that all of the flies have been killed; 0% means that none of the flies have been killed.

[4] = logP determination by HPLC on a reversed-phase column (C18), EEC Directive 79/831 Annex V.A8; format: physicochemical
How it was run: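 Retention on a C18 reversed-phase column (Zorbax Eclipse Plus, 1.8 micron) was used, eluting with acetonitrile/water, each containing formic acid. The gradient ran from 10% to 95% acetonitrile over 4.25 min, then held 1.25 min, at 55° C and 2.0 ml/min, with MS detection.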

[5] = tested on: engorged adult female cattle ticks (Boophilus microplus); test: Boophilus microplus injection test (BOOPMI Inj); format: in vivo; conditions: application rate 20 μg/animal; injection into abdomen; assessed after 7 days
How it was run: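 DMSO solution of compound (1 μl) injected into the abdomen of 5 engorged adult female ticks, which are then held in a climate-controlled room. After 7 days, efficacy is scored from laying of fertile eggs, with unclear eggs kept until larval hatch (~42 days); 100% means no fertile eggs, 0% all fertile.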

[6] = tested on: adult cat fleas (Ctenocephalides felis); test: Ctenocephalides felis oral test (CTECFE); format: in vivo; conditions: application rate 100 ppm in citrated cattle blood; after 2 days
How it was run: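 About 20 unfed adult cat fleas fed through parafilm membrane on citrated cattle blood containing compound (DMSO stock diluted in blood to test concentration). Kill % scored after 2 days (100% = all fleas dead).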

[7] = tested on: caterpillars of the armyworm (Spodoptera frugiperda); test: Spodoptera frugiperda spray test (SPODFR); format: in vivo; conditions: maize leaf discs, after 7 days
How it was run: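 Maize leaf discs sprayed with compound in acetone/DMF with alkylaryl polyglycol ether emulsifier (1000 ppm) in water, dried, then infested with armyworm caterpillars. Mortality (%) scored after 7 days; 100% = all caterpillars killed, 0% = none killed.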

[8] = tested on: adult cat fleas (Ctenocephalides felis); test: Ctenocephalides felis in vitro contact test with adult cat fleas (T1); conditions: after 48 h
How it was run: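 Test compound was dissolved in acetone p.a. (9 mg per 1 ml) and diluted as needed. 250 μl was spread evenly over the inner walls and floor of a 25 ml test tube by rotating on an orbital shaker for 2 h at 30 rpm. Once the solvent evaporated, 5-10 adult Ctenocephalides felis were added. Tubes were capped with a perforated plastic lid and kept horizontal at room temperature and ambient humidity.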

[9] = tested on: adult dog ticks (Rhipicephalus sanguineus); test: Rhipicephalus sanguineus in vitro contact test with adult brown dog ticks (T2); conditions: after 48 h
Procedure: T2. Rhipicephalus sanguineus-in vitro Contact Tests with Adult Brown Dog Ticks
For the coating of the test tubes, initially 9 mg of active compound are dissolved in 1 ml of acetone p.a. and then diluted with acetone p.a. to the desired concentration. By turning and rocking on an orbital shaker (2 h of rocking rotation at 30 rpm), 250 μl of the solution are distributed homogeneously on the internal walls and the floor of a 25 ml test tube. At 900 ppm active compound solution and 44.7 cm^2 internal surface, an area dose of 5 μg/cm^2 is achieved for homogeneous distribution.
After evaporation of the solvent, the tubes are populated with 5-10 adult dog ticks (Rhipicephalus sanguineus), sealed with a perforated plastic lid and incubated in a horizontal position in the dark at room temperature and ambient humidity. After 48 h, the efficacy is determined. To this end, the ticks are knocked to the floor of the tube and incubated on a hotplate at 45-50° C. for at most 5 min Ticks which remain motionless on the floor or move in an uncoordinated manner such that they are not able to deliberately avoid the heat by climbing upwards are considered to be dead or moribund.
An efficacy of 100% means that all ticks were dead or moribund. 0% efficacy means that none of the ticks had been damaged.

[10] = tested on: greenhouse red spider mite (Tetranychus urticae); test: Tetranychus urticae spray test, OP-resistant (TETRUR); format: in vivo; conditions: bean leaf discs, after 6 days
How it was run: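 Bean leaf discs carrying all stages of OP-resistant Tetranychus urticae were sprayed with compound formulated in acetone/dimethylformamide and diluted in water with 1000 ppm alkylaryl polyglycol ether emulsifier. Mortality (% efficacy, 100% = all mites killed) scored after 6 days.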

[11] = HPLC on reversed-phase column (C18), acetonitrile/water with formic acid, EEC Directive 79/831 Annex V.A8

N#CC1(NC(=O)c2cc(-c3cnn(-c4c(C(F)(F)F)c(C(F)(F)C(F)(F)F)nn4-c4ccccc4)c3)ccc2Cl)CC1 [Ic-7]
4.43: logP [4, 11]
100%: efficacy in % ([1]; application rate 100 g/ha) | efficacy (kill in %) [2] | efficacy (kill in %) [3] | efficacy (laying of fertile eggs) [5] | efficacy (kill in %) [6] | efficacy in % ([7]; application rate 100 g/ha)

Cc1nn(-c2c(C(F)(F)F)c(C(F)(F)C(F)(F)F)nn2C)cc1-c1ccc(Cl)c(C(=O)NC2CC2)c1 [Ic-12]
3.97: logP [4, 11]
100%: efficacy in % ([1]; application rate 100 g/ha) | efficacy (kill in %) [2] | efficacy (dead or moribund fleas) ([8]; application rate 1 μg/cm^2) | efficacy (dead or moribund fleas) ([8]; application rate 5 μg/cm^2) | efficacy (kill in %) [3] | efficacy (laying of fertile eggs) [5] | efficacy (kill in %) [6] | efficacy in % ([7]; application rate 100 g/ha)

Cn1nc(C(F)(F)C(F)(F)F)c(C(F)(F)F)c1-n1cc(-c2ccc(Cl)c(C(=O)Nc3ccc(Cl)cc3)c2)cn1 [Ic-25]
90%: efficacy (kill in %) [3]
4.93: logP [4, 11]
95%: efficacy (kill in %) [6]
100%: efficacy (dead or moribund ticks) ([9]; application rate 1 μg/cm^2) | efficacy (dead or moribund ticks) ([9]; application rate 5 μg/cm^2) | efficacy in % ([1]; application rate 100 g/ha) | efficacy (kill in %) [2] | efficacy (laying of fertile eggs) [5] | efficacy in % ([7]; application rate 100 g/ha)

Cn1nc(C(F)(F)C(F)(F)F)c(C(F)(F)F)c1-n1cc(-c2cc(F)cc(C(=O)NC3CC3)c2)cn1 [Ic-39]
100%: efficacy in % ([1]; application rate 500 g/ha) | efficacy in % ([10]; application rate 100 g/ha) | efficacy (kill in %) [2] | efficacy (kill in %) [3] | efficacy (laying of fertile eggs) [5] | efficacy (kill in %) [6] | efficacy in % ([7]; application rate 100 g/ha) | efficacy in % ([7]; application rate 500 g/ha)

Cn1nc(C(F)(F)C(F)(F)F)c(C(F)(F)F)c1-n1cc(-c2cc(Cl)cc(C(=O)NC3(C#N)CC3)c2)cn1 [Ic-43]
100%: efficacy (dead or moribund ticks) ([9]; application rate 1 μg/cm^2) | efficacy in % ([1]; application rate 500 g/ha) | efficacy (kill in %) [2] | efficacy (kill in %) [3] | efficacy (laying of fertile eggs) [5] | efficacy (kill in %) [6] | efficacy in % ([7]; application rate 500 g/ha)

Cn1nc(C(F)(F)C(F)(F)F)c(C(F)(F)F)c1-n1cc(-c2cc(Cl)cc(C(=O)NC3CC3)c2)cn1 [Ic-44]
80%: efficacy in % ([10]; application rate 500 g/ha) | efficacy (kill in %) [3]
100%: efficacy in % ([1]; application rate 500 g/ha) | efficacy (kill in %) [2] | efficacy (laying of fertile eggs) [5] | efficacy (kill in %) [6] | efficacy in % ([7]; application rate 500 g/ha)

Cn1nc(C(F)(F)C(F)(F)F)c(C(F)(F)F)c1-n1cc(-c2cc(C(=O)NC3CC3)ccc2Cl)cn1 [Ic-46]
100%: efficacy (dead or moribund ticks) ([9]; application rate 1 μg/cm^2) | efficacy in % ([1]; application rate 500 g/ha) | efficacy (kill in %) [2] | efficacy (kill in %) [3] | efficacy (laying of fertile eggs) [5] | efficacy (kill in %) [6] | efficacy in % ([7]; application rate 500 g/ha)

Cn1nc(C(F)(F)C(F)(F)F)c(C(F)(F)F)c1-n1cc(-c2cc(C(=O)NC3CC3)cc(C(F)(F)F)c2)cn1 [Ic-59]
100%: efficacy (dead or moribund ticks) ([9]; application rate 1 μg/cm^2) | efficacy in % ([1]; application rate 500 g/ha) | efficacy (kill in %) [2] | efficacy (kill in %) [3] | efficacy (laying of fertile eggs) [5] | efficacy (kill in %) [6] | efficacy in % ([7]; application rate 500 g/ha)
90%: efficacy in % ([10]; application rate 100 g/ha)

Cn1nc(C(F)(F)C(F)(F)F)c(C(F)(F)F)c1-n1cc(-c2cc(C(=O)NC3CC3)cc(F)c2F)cn1 [Ic-61]
100%: efficacy in % ([1]; application rate 500 g/ha) | efficacy (kill in %) [2] | efficacy (laying of fertile eggs) [5] | efficacy (kill in %) [6] | efficacy in % ([7]; application rate 100 g/ha)
80%: efficacy (dead or moribund ticks) ([9]; application rate 5 μg/cm^2) | efficacy (kill in %) [3]

Cn1nc(C(F)(F)C(F)(F)F)c(C(F)(F)F)c1-n1cc(-c2cc(C(=O)NC3(C#N)CC3)cc(F)c2F)cn1 [Ic-64]
80%: efficacy (kill in %) [3]
100%: efficacy in % ([1]; application rate 500 g/ha) | efficacy in % ([10]; application rate 100 g/ha) | efficacy (kill in %) [2] | efficacy (laying of fertile eggs) [5] | efficacy (kill in %) [6] | efficacy in % ([7]; application rate 100 g/ha)

Cn1nc(C(F)(F)C(F)(F)F)c(C(F)(F)F)c1-n1cc(-c2ccnc(C(=O)NC3(C#N)CC3)c2)cn1 [Ic-76]
100%: efficacy in % ([1]; application rate 500 g/ha) | efficacy (kill in %) [2] | efficacy (laying of fertile eggs) [5] | efficacy (kill in %) [6] | efficacy in % ([7]; application rate 500 g/ha)
80%: efficacy in % ([10]; application rate 500 g/ha) | efficacy (kill in %) [3]

Cn1nc(C(F)(F)C(F)(F)F)c(C(F)(F)F)c1-n1cc(-c2ccc(Cl)c(C(=O)NC3CC3)c2F)cn1 [Ic-106]
100%: efficacy (dead or moribund ticks) ([9]; application rate 5 μg/cm^2) | efficacy in % ([1]; application rate 500 g/ha) | efficacy (kill in %) [2] | efficacy (kill in %) [3] | efficacy (laying of fertile eggs) [5] | efficacy (kill in %) [6]
83%: efficacy in % ([7]; application rate 500 g/ha)

Cn1nc(C(F)(F)C(F)(F)F)c(C(F)(F)F)c1-n1cc(-c2ccc(Cl)c(C(=O)Nc3ccccc3)c2)cn1 [Ic-136]
100%: efficacy in % ([1]; application rate 500 g/ha) | efficacy in % ([10]; application rate 500 g/ha) | efficacy (kill in %) [2] | efficacy (laying of fertile eggs) [5] | efficacy (kill in %) [6] | efficacy in % ([7]; application rate 500 g/ha)
90%: efficacy (kill in %) [3]

Cn1nc(C(F)(F)C(F)(F)F)c(C(F)(F)F)c1-n1cc(-c2ccc(Cl)c(C(=O)Nc3ccccn3)c2)cn1 [Ic-140]
100%: efficacy in % ([1]; application rate 500 g/ha) | efficacy in % ([10]; application rate 500 g/ha) | efficacy (kill in %) [2] | efficacy (dead or moribund fleas) ([8]; application rate 1 μg/cm^2) | efficacy (dead or moribund fleas) ([8]; application rate 5 μg/cm^2) | efficacy (laying of fertile eggs) [5] | efficacy (kill in %) [6] | efficacy in % ([7]; application rate 500 g/ha)
90%: efficacy (kill in %) [3]

CC(NC(=O)c1cc(-c2cnn(-c3c(C(F)(F)F)c(C(F)(F)C(F)(F)F)nn3C)c2)ccc1Cl)C(N)=O (stereo not shown) [Ic-154]
80%: efficacy (dead or moribund fleas) ([8]; application rate 5 μg/cm^2)
100%: efficacy in % ([1]; application rate 500 g/ha) | efficacy in % ([10]; application rate 500 g/ha) | efficacy (kill in %) [2] | efficacy (dead or moribund fleas) ([8]; application rate 1 μg/cm^2) | efficacy (laying of fertile eggs) [5] | efficacy (kill in %) [6] | efficacy in % ([7]; application rate 500 g/ha)
90%: efficacy (kill in %) [3]

Cn1nc(C(F)(F)C(F)(F)F)c(C(F)(F)F)c1-n1cc(-c2ccc(F)c(C(=O)NC3CC3)c2F)cn1 [Ic-174]
100%: efficacy (dead or moribund ticks) ([9]; application rate 1 μg/cm^2) | efficacy (dead or moribund ticks) ([9]; application rate 5 μg/cm^2) | efficacy in % ([1]; application rate 500 g/ha) | efficacy (kill in %) [2] | efficacy (kill in %) [3] | efficacy (laying of fertile eggs) [5] | efficacy (kill in %) [6] | efficacy in % ([7]; application rate 500 g/ha)

Cn1nc(C(F)(F)C(F)(F)F)c(C(F)(F)F)c1-n1ccc(-c2ccc(Cl)c(C(=O)NC3(C#N)CC3)c2)n1 [Id-1]
3.87: logP ([4]; HPLC, reversed-phase C18, acetonitrile (0.1% formic acid)/water (0.09% formic acid) gradient)
100%: efficacy in % ([1]; application rate 100 g/ha) | efficacy (kill in %) [2] | efficacy (kill in %) [3] | efficacy (laying of fertile eggs) [5] | efficacy (kill in %) [6] | efficacy in % ([7]; application rate 100 g/ha)
